According to paper PMC11971462, “Generation and validation of a novel multitarget small molecule in glioblastoma” (Cell Death & Disease, 2025):

System: GNS166 cells
Experiment: Label-free proteomics differential expression
Type: cell-based, human
Method: Proteomic studies were performed by the Proteomics Facility of the CIC bioGUNE by label-free relative quantification on nLC MS/MS. […] In both approaches, the top 20 enriched terms were plotted and the pathways were clustered using divisive hierarchical clustering based on pairwise Jaccard distances.

`C#CCN(Cc1cc2cc(OCCCN3CCCCC3)ccc2n1S(=O)(=O)c1ccccc1)C(=O)CCCCCCC(=O)NO` [DDI] was tested, and the “LogFC SC61G_HUMAN” value (protein P60059) was -0.7245, the “Direction S61A1_HUMAN” value (protein P61619) was “Down” and the “LogFC S61A1_HUMAN” value (protein P61619) was -0.5192. The “LogFC NPC2_HUMAN” value (protein P61916 GN=NPC2) was 2.258, the “Direction RS7_HUMAN” value (protein P62081) was “Down” and the “LogFC RS7_HUMAN” value (protein P62081) was -0.4241. For the same compound, the “Direction PRS4_HUMAN” value (protein P62191) was “Down”, the “LogFC PRS4_HUMAN” value (protein P62191) was -0.4147 and the “LogFC RS8_HUMAN” value (protein P62241 GN=RPS8) was -0.4178. The “LogFC VISL1_HUMAN” value (protein P62760 GN=VSNL1) was 1.015, the “LogFC RS15_HUMAN” value (protein P62841 GN=RPS15) was -0.6326 and the “LogFC GNAI1_HUMAN” value (protein P63096 GN=GNAI1) was 2.584. For the same compound, the “Direction DYL1_HUMAN” value (protein P63167) was “Down”, the “LogFC DYL1_HUMAN” value (protein P63167) was -0.5083 and the “LogFC YBOX1_HUMAN” value (protein P67809 GN=YBX1) was -0.6246. For the same compound, the “Direction EF1A1_HUMAN” value (protein P68104) was “Down”, the “LogFC EF1A1_HUMAN” value (protein P68104) was -0.2726 and the “Direction H31_HUMAN” value (protein P68431) was “Down”. For the same compound, the “LogFC H31_HUMAN” value (protein P68431) was -4.298, the “Direction IF4G2_HUMAN” value (protein P78344) was “Down” and the “LogFC IF4G2_HUMAN” value (protein P78344) was -0.799. For the same compound, the “Direction GTF2I_HUMAN” value (protein P78347) was “Down”, the “LogFC GTF2I_HUMAN” value (protein P78347) was -2.48 and the “LogFC JAG1_HUMAN” value (protein P78504 GN=JAG1) was 1.553. The “LogFC GABT_HUMAN” value (protein P80404 GN=ABAT) was 1.722, the “LogFC HMGN5_HUMAN” value (protein P82970 GN=HMGN5) was 1.669 and the “LogFC NEXN_HUMAN” value (protein Q0ZGT2 GN=NEXN) was 1.075. For the same compound, the “Direction ERC6L_HUMAN” value (protein Q2NKX8) was “Down”, the “LogFC ERC6L_HUMAN” value (protein Q2NKX8) was -1.52 and the “Direction TSR1_HUMAN” value (protein Q2NL82) was “Down”. The “LogFC TSR1_HUMAN” value (protein Q2NL82) was -0.7691, the “Direction QRIC1_HUMAN” value (protein Q2TAL8) was “Down” and the “LogFC QRIC1_HUMAN” value (protein Q2TAL8) was -0.7876. The “Direction RABL6_HUMAN” value (protein Q3YEC7) was “Down”, the “LogFC RABL6_HUMAN” value (protein Q3YEC7) was -0.9067 and the “LogFC CCD58_HUMAN” value (protein Q4VC31 GN=CCDC58) was 2.085. The “LogFC TM41B_HUMAN” value (protein Q5BJD5 GN=TMEM41B) was 1.572, the “Direction MEST_HUMAN” value (protein Q5EB52) was “Down” and the “LogFC MEST_HUMAN” value (protein Q5EB52) was -1.179. The “LogFC EMC4_HUMAN” value (protein Q5J8M3 GN=EMC4) was 0.9113, the “LogFC HABP4_HUMAN” value (protein Q5JVS0 GN=HABP4) was 1.16 and the “Direction S27A3_HUMAN” value (protein Q5K4L6) was “Down”. The “LogFC S27A3_HUMAN” value (protein Q5K4L6) was -1.576, the “Direction CAF17_HUMAN” value (protein Q5T440) was “Down” and the “LogFC CAF17_HUMAN” value (protein Q5T440) was -1.623. For the same compound, the “LogFC FRY_HUMAN” value (protein Q5TBA9 GN=FRY) was 0.4095, the “Direction CDKAL_HUMAN” value (protein Q5VV42) was “Down” and the “LogFC CDKAL_HUMAN” value (protein Q5VV42) was -0.9728. The “LogFC LYPL1_HUMAN” value (protein Q5VWZ2 GN=LYPLAL1) was 2.901, the “Direction ECM29_HUMAN” value (protein Q5VYK3) was “Down” and the “LogFC ECM29_HUMAN” value (protein Q5VYK3) was -1.336. The “Direction P4R3A_HUMAN” value (protein Q6IN85) was “Down”, the “LogFC P4R3A_HUMAN” value (protein Q6IN85) was -0.9894 and the “Direction NEPRO_HUMAN” value (protein Q6NW34) was “Down”. For the same compound, the “LogFC NEPRO_HUMAN” value (protein Q6NW34) was -2.0501, the “Direction CAVN1_HUMAN” value (protein Q6NZI2) was “Down” and the “LogFC CAVN1_HUMAN” value (protein Q6NZI2) was -0.9705. The “Direction PRP8_HUMAN” value (protein Q6P2Q9) was “Down”, the “LogFC PRP8_HUMAN” value (protein Q6P2Q9) was -0.5767 and the “LogFC PDXD1_HUMAN” value (protein Q6P996 GN=PDXDC1) was -1.201. The “LogFC MDEAS_HUMAN” value (protein Q6PJG2 GN=MIDEAS) was -1.368, the “LogFC TMED8_HUMAN” value (protein Q6PL24 GN=TMED8) was 1.071 and the “LogFC F111B_HUMAN” value (protein Q6SJ93 GN=FAM111B) was 1.175. The “Direction MCAF1_HUMAN” value (protein Q6VMQ6) was “Down”, the “LogFC MCAF1_HUMAN” value (protein Q6VMQ6) was -0.5577 and the “Direction DNMBP_HUMAN” value (protein Q6XZF7) was “Down”. The “LogFC DNMBP_HUMAN” value (protein Q6XZF7) was -1.235, the “LogFC HSDL2_HUMAN” value (protein Q6YN16 GN=HSDL2) was 0.7277 and the “Direction NFXL1_HUMAN” value (protein Q6ZNB6) was “Down”. For the same compound, the “LogFC NFXL1_HUMAN” value (protein Q6ZNB6) was -0.9938, the “Direction QSOX2_HUMAN” value (protein Q6ZRP7) was “Down” and the “LogFC QSOX2_HUMAN” value (protein Q6ZRP7) was -1.536. The “LogFC SRCAP_HUMAN” value (protein Q6ZRS2 GN=SRCAP) was -1.996, the “Direction CCD9B_HUMAN” value (protein Q6ZUT6) was “Down” and the “LogFC CCD9B_HUMAN” value (protein Q6ZUT6) was -1.697. The “LogFC SND1_HUMAN” value (protein Q7KZF4 GN=SND1) was 0.6224, the “LogFC SV2A_HUMAN” value (protein Q7L0J3 GN=SV2A) was 0.9586 and the “Direction CYFP1_HUMAN” value (protein Q7L576) was “Down”. The “LogFC CYFP1_HUMAN” value (protein Q7L576) was -0.7029, the “Direction POGZ_HUMAN” value (protein Q7Z3K3) was “Down” and the “LogFC POGZ_HUMAN” value (protein Q7Z3K3) was -1.413. For the same compound, the “LogFC MON2_HUMAN” value (protein Q7Z3U7 GN=MON2) was -0.4314, the “Direction KI21A_HUMAN” value (protein Q7Z4S6) was “Down” and the “LogFC KI21A_HUMAN” value (protein Q7Z4S6) was -1.343. The “Direction CAMP2_HUMAN” value (protein Q08AD1) was “Down”, the “LogFC CAMP2_HUMAN” value (protein Q08AD1) was -0.4479 and the “LogFC H2A2B_HUMAN” value (protein Q8IUE6 GN=H2AC21) was -0.9956. The “LogFC RIOX2_HUMAN” value (protein Q8IUF8 GN=RIOX2) was -1.969, the “LogFC ARMC8_HUMAN” value (protein Q8IUR7 GN=ARMC8) was -2.228 and the “Direction CEP97_HUMAN” value (protein Q8IW35) was “Down”. For the same compound, the “LogFC CEP97_HUMAN” value (protein Q8IW35) was -0.4382, the “LogFC LRC8A_HUMAN” value (protein Q8IWT6 GN=LRRC8A) was -0.7869 and the “Direction CCAR1_HUMAN” value (protein Q8IX12) was “Down”. For the same compound, the “LogFC CCAR1_HUMAN” value (protein Q8IX12) was -0.6634, the “Direction RAVR1_HUMAN” value (protein Q8IY67) was “Down” and the “LogFC RAVR1_HUMAN” value (protein Q8IY67) was -2.239. The “LogFC SMAP1_HUMAN” value (protein Q8IYB5 GN=SMAP1) was -0.6906, the “Direction TRI22_HUMAN” value (protein Q8IYM9) was “Down” and the “LogFC TRI22_HUMAN” value (protein Q8IYM9) was -2.3161. For the same compound, the “LogFC LRC47_HUMAN” value (protein Q8N1G4 GN=LRRC47) was -0.5175, the “LogFC PIAS4_HUMAN” value (protein Q8N2W9 GN=PIAS4) was 0.8535 and the “Direction ASCC3_HUMAN” value (protein Q8N3C0) was “Down”. The “LogFC ASCC3_HUMAN” value (protein Q8N3C0) was -0.4031, the “Direction MILK1_HUMAN” value (protein Q8N3F8) was “Down” and the “LogFC MILK1_HUMAN” value (protein Q8N3F8) was -1.876. For the same compound, the “LogFC DHRSX_HUMAN” value (protein Q8N5I4 GN=DHRSX) was -1.799, the “LogFC ARFG2_HUMAN” value (protein Q8N6H7 GN=ARFGAP2) was -2.652 and the “LogFC FITM2_HUMAN” value (protein Q8N6M3 GN=FITM2) was 1.422. The “Direction INT1_HUMAN” value (protein Q8N201) was “Down”, the “LogFC INT1_HUMAN” value (protein Q8N201) was -1.252 and the “Direction CPSF7_HUMAN” value (protein Q8N684) was “Down”. The “LogFC CPSF7_HUMAN” value (protein Q8N684) was -0.7682, the “Direction CGAS_HUMAN” value (protein Q8N884) was “Down” and the “LogFC CGAS_HUMAN” value (protein Q8N884) was -1.895. For the same compound, the “LogFC PR38A_HUMAN” value (protein Q8NAV1 GN=PRPF38A) was 1.096.
